# From article PMC3332081, “Cysteamine Suppresses Invasion, Metastasis and Prolongs Survival by Inhibiting Matrix Metalloproteinases in a Mouse Model of Human Pancreatic Cancer” (PLoS ONE, 2012)
# Key:
# [1] = parameters: method as in PMID 11060801; conditions: cited from earlier work
# MMP-12 [2] = target: T1, MMP-12 (Homo sapiens, UniProt P39900); assay: fluorimetric MMP inhibitor profiling, MMP-12; format: biochemical; conditions: 30 minutes preincubation, fluorogenic substrate
# T1 construct: purchased Enzo Life Science, Farmingdale, NY
# T1 sequence (P39900 106-470): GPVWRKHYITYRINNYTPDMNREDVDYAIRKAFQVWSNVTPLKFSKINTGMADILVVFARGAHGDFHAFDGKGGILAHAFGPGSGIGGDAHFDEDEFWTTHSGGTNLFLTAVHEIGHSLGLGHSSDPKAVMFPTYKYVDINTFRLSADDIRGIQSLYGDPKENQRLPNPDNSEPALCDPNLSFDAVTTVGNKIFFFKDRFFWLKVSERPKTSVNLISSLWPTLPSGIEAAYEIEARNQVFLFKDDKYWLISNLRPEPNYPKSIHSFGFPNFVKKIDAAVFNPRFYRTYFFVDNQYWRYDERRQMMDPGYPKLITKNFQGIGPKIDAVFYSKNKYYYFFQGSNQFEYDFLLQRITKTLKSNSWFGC
# Procedure: (§1) After administration of fluorogenic substrate, a velocity of fluorescent increase was measured using excitation/emission = 320/405 nm.
# [3] = safety in tumor-bearing mice (body weight, serum enzymes, histology); format: in vivo, nude nu/nu mice
# Procedure: (§2) Female nude nu/nu mice between ages 5 and 6 weeks were maintained in a barrier facility in HEPA-filtered rack. All animal studies were conducted under approved protocol #2000–06 by the CBER Institutional Animal Care and Use Committee in accordance with the principles and procedures outlined in the NIH Guideline for the Care and Use of Laboratory Animals. For orthotopic tumor cell injection, the pancreas was carefully exposed, and 2.0×10^6 of MIA-PaCa2 and HS766T cells were injected into the organ. The pancreas was then returned to the peritoneal cavity, and the abdominal wall and skin were closed with skin clips,[30]. From day 4 after tumor implantation, increasing doses of cysteamine (0, 25, 100, or 250 mg/kg/day) were subcutaneously injected twice a day until the end of the experiment. At day 30, mice were sacrificed and the number of metastatic nodules visible by naked eye and whose sizes were >5 mm in diameter counted. The total weight of primary tumor and metastatic nodules were also measured. Pictures were taken immediately after sacrificing the animals. Additionally, mouse survival time was monitored in an independent experiment. Mice were sacrificed when they had severe ascites or cachexia. Mice in both tumor models were weighed at day 10 and day 25 after Cysteamine treatment.
# Mouse blood was collected from the tail vein. Serum levels of alanine aminotransferase (ALT), creatine kinase (CK), aldolase and creatinine (Cr) were measured using different kits obtained from Pointe Scientific, Inc. (Canton, MI) and Caldon Biotech, Inc. (Vista, Ca), following the manufacturer's instruction.
# HS766T [4] = assay: orthotopic pancreatic cancer model, HS766T; format: in vivo, nude nu/nu mice
# Procedure: as §2
# MMP-9 [5] = assay: zymography of primary tumors; format: in vivo, nude nu/nu mice; conditions: tumors harvested at day 30
# Procedure: (§3) Gelatin gel zymography was performed on cell lysates from HS7666 and MIA-PaCa2 pancreatic cancer cell line with or without culture with different concentration of cysteamine essentially as described by D'Angelo et al. Briefly, 50 µg of total protein was electrophoresed on 10% SDS-PAGE containing 0.1% gelatin as substrate. After washing with 1% Triton X-100 in 50 mM Tris/HCl, pH 7.5 for 1 hr to remove SDS, the gels were incubated overnight at 37 °C in 50 mM Tris/HCl, pH 7.5, containing 150 mM NaCl, 10 mM CaCl2 and 0.1% Triton X-100, prior to staining with simply blue safe stain. The gels were washed with deionized water at room temperature. […] Relevant band intensities were quantified by scanning densitometric analysis and normalized to cell number.
# (§4) When mice were sacrificed at day 30, primary tumors were collected. For extraction of total protein, the tumor was soaked with lysis buffer and homogenized using TissueRuptor (QIAGEN); the supernatant was collected. Total RNA was extracted using FastRNA pro green kit (MP Biomedicals, Solon, OH) following the manufacturer's instructions. MMP activity, gelatin hydrolyzing MMP activity and the mRNA and protein levels of MMP-9 were determined as mentioned above.
# [6] = oral, every 6 hours at 60 to 90 mg/kg of body weight per day; cited from earlier work
# MMP-14 = MMP-14 mRNA in treated cells (qRT-PCR); format: cell-based, human; conditions: 24 hours, highest concentration
# Procedure: (§5) Quantitative reverse transcription-PCR (qRT-PCR) was performed as described previously using QuantiTect SYBR Green PCR Kits (QIAGEN, Valencia, CA). Gene specific primers for human MMP-9, MMP-12, MMP-14 and β-actin were either purchased from QIAGEN or synthesized at the CBER core facility. Gene expression was normalized to β-actin before the fold change in gene expression was determined.
# [7] = cited from earlier work
# [8] = test system: pancreatic cancer cell lines; assay: matrigel invasion assay; format: cell-based, human
# Procedure: Cell invasion was assayed in BD BioCoat Matrigel invasion chambers (BD Biosciences; 24 wells, 8 µm pore size) as described previously. Briefly, cells were incubated with different concentrations of cysteamine (0–5 mM) for 24 hours. Non-invaded cells were removed from the upper surface of the membrane with a cotton swab, and cells on the lower surface of the membrane were fixed and stained with H&E. Three random fields per chamber were counted. Data were shown as mean ± S.D. of triplicate determinations.
# [9] = test system: total MMPs activity in pancreatic cancer cell lines; assay: total MMPs activity in lysates of treated cells (fluorogenic substrate); format: cell-based, human; conditions: two representative pancreatic cancer cell lines, 0–5 mM, 24 hours
# Procedure: (§6) MMPs activity was measured by Mca-KPLGL-Dpa-AR-NH2 Fluorogenic Peptide Substrate (R&D systems, Emeryville, CA). Total cell protein from each pancreatic cancer cell line was collected using lysis buffer (containing 50 mM Tris-HCl, 10 mM CaCl2, 0.05% Brij35 and 0.25% Triton-X) without an MMP inhibitor. Substrate and 10 µg of total cell protein in the buffer were mixed in a black-wall 96-well plate. After 1 hour incubation, fluorescence units were determined using excitation/emission = 320/405 nm.
# MMP-12 [10] = assay: MMP-12 mRNA in treated cells (qRT-PCR); format: cell-based, human; conditions: 24 hours, highest concentration
# Procedure: as §5
# MMP-9 [11] = assay: MMP-9 mRNA in treated cells (qRT-PCR); format: cell-based, human; conditions: 5 mM (highest concentration), 24 hours, both cell lines
# Procedure: as §5
# HS766T [12] = assay: cell viability assay (trypan blue count), HS766T; format: cell-based, human; conditions: 24 and 48 hour treatment, viable cell count
# Procedure: (§7) Cell viability of pancreatic cancer cell lines was measured by counting viable cell numbers. Briefly, 3×10^5 cells were seeded per well in a 6-well plate with 2.0 milliliter complete medium and incubated overnight for plating. The cells were treated with different concentrations of cysteamine for 24–48 hours. After incubation, cells were detached with trypsin, washed and stained with 0.4% trypan blue. Cell number was manually counted using a hemocytometer and presented as number of viable cells per milliliter.
# MMPs = assay: fluorimetric MMP inhibitor profiling, span over all MMPs; format: biochemical; conditions: MMP-1, -2, -3, -7, -8, -9, -10, -12, -13, -14; read-out: IC50 against each MMP enzymatic activity (span over the MMPs)
# Procedure: as §1
# MMP-9 [13] = assay: gelatin gel zymography of treated cells; format: cell-based, human; conditions: cell lysates after 24 hours
# Procedure: as §3
# MMP-9 [14] = assay: MMP-9 protein in primary tumors (ELISA); format: in vivo, nude nu/nu mice; conditions: tumors harvested at day 30
# Procedure: (§8) The MMP-9 protein level was determined using Human total MMP-9 DuoSet kit (R&D systems, Emeryville, CA) following the manufacturer's instruction. Ten microgram of total protein was aliquoted in each well and the MMP-9 concentration was determined by the colorimetric method.
# as §4
# [15] = test system: MMPs activity in primary orthotopic tumors (HS766T and MIA-PaCa2); assay: MMP activity in primary orthotopic tumors (fluorogenic substrate); format: in vivo, nude nu/nu mice; conditions: 100 and 250 mg/Kg, day 30
# Procedure: as §6, §4
# [16] = test system: pancreatic cancer cell lines; assay: cell migration (wound healing) assay; format: cell-based, human
# Procedure: Cell migration assay is a classical wound healing assay. For this assay, cells were cultured in 10 cm petri dishes until they were completely confluent. Cell monolayers were scraped with a sterile yellow micropipette tip and washed with PBS three times; the cells were then cultured in medium containing 0–5 mM of cysteamine for 24 hours. Five random fields were selected and pictures were taken using an inverted microscope. The average area (mm^2) of the gap between the cell layers was calculated using IPLab imaging software (BD Biosciences-Bioimaging, Rockville, MD).
# MIA-PaCa2 [17] = assay: cell viability assay (trypan blue count), MIA-PaCa2; format: cell-based, human
# Procedure: as §7
# MMP-9 [18] = assay: MMP-9 mRNA in primary tumors (qRT-PCR); format: in vivo, nude nu/nu mice; conditions: tumors harvested at day 30
# Procedure: as §5, §4
# MIA-PaCa2 [19] = assay: orthotopic pancreatic cancer model, MIA-PaCa2; format: in vivo, nude nu/nu mice
# Procedure: as §2
# MMP-9 [20] = assay: MMP-9 protein level in treated cells (ELISA); format: cell-based, human; conditions: 5 mM (highest concentration), 24 hours, both cell lines
# Procedure: as §8
compound,measurement,setting,value
CNC(=O)[C@H](Cc1ccccc1)NC(=O)[C@H](CC(C)C)[C@H](CSc1cccs1)C(=O)NO [Batimastat],oral bioavailability,[1],poor oral bioavailability
same,IC50,MMP-12 [2],12 nM
NCCS [Cysteamine],organ toxicity by histological examination,"[3]; liver, kidney, brain, heart, lung, day 30",no organ toxicity was detected
same,"dose tolerated without visible, biochemical or histological evidence of toxicity","[3]; mice, s.c.",up to 250 mg/kg/day
same,serum alanine aminotransferase (ALT),"[3]; mouse, in vivo",no significant differences
same,serum aldolase,"[3]; mouse, in vivo",no significant differences
same,serum creatine kinase (CK),"[3]; mouse, in vivo",no significant differences
same,serum creatinine (Cr),"[3]; mouse, in vivo",no significant differences
same,"HS766T metastasis number, average","HS766T [4]; 250mg/kg s.c., day 30, lesions ≥ 5 mm, average of 5 mice",3.6
same,decrease of the number of metastases of HS766T tumor,"HS766T [4]; 250 mg/kg/day s.c., day 30, versus control",~90%
same,development of ascites,"HS766T [4]; HS766T model, 100 and 250 mg/kg/day",no mice developed ascites
same,dose at which mouse survival time was significantly prolonged,"HS766T [4]; HS766T model, Kaplan-Meier, s.c. twice a day from day 4",≥ 100 mg/kg/day
same,"size and weight of the primary tumors, control versus treated groups","HS766T [4]; HS766T model, day 30",did not show any difference
same,"zymography for MMP-9, gelatinase activity in tumors",MMP-9 [5],dose dependent decrease in gelatinase activity
same,cysteamine plasma level,[6],~50 µM
same,MMP-14 mRNA,MMP-14,modest increase
same,adverse effects in subjects,[7],only gastrointestinal symptoms
same,lowest concentration that significantly inhibited cell invasion,"[8]; all 10 pancreatic cancer cell lines, 24 hours",0.05 mM
same,concentration that sufficiently inhibited cancer cell invasion in vitro,[8]; in vitro,50 µM
same,total MMP activity in treated cells,[9],inhibited MMP activity
same,MMP-12 mRNA,MMP-12 [10],modest increase
same,MMP-9 mRNA level,MMP-9 [11],modestly increased
same,concentration showing cell toxicity,HS766T [12],> 12.5 mM
same,IC50,MMPs,38 to 460 µM
same,"zymographic gelatin hydrolyzing activity, pro and active MMP-9",MMP-9 [13],decreased significantly in a dose dependent manner
same,MMP-9 protein level in primary tumors,MMP-9 [14],did not affect
same,MMPs activity in primary orthotopic tumors,[15],decreased MMPs activity
same,concentration at which cell migration was significantly inhibited,"[16]; all 10 cell lines, 24 hours",≥ 0.05 mM
same,concentration that sufficiently inhibited cancer cell migration in vitro,[16]; in vitro,50 µM
same,concentration showing cell toxicity,"MIA-PaCa2 [17]; MIA-PaCa2, 24 and 48 hour treatment, viable cell count",> 12.5 mM
same,concentrations that caused no toxicity to cells (abstract),"MIA-PaCa2 [17]; cells not named in the abstract, viability tested in MIA-PaCa2",< 25 mM
same,MMP-9 mRNA level in primary tumors,MMP-9 [18],did not affect
same,development of ascites,"MIA-PaCa2 [19]; MIA-PaCa2 model, 100 and 250 mg/kg/day",no mice developed ascites
same,dose at which mouse survival time was significantly prolonged,"MIA-PaCa2 [19]; MIA-PaCa2 model, Kaplan-Meier, s.c. twice a day from day 4",≥ 100 mg/kg/day
same,"size and weight of the primary tumors, control versus treated groups","MIA-PaCa2 [19]; MIA-PaCa2 model, day 30",did not show any difference
same,decrease of the total weight of metastatic nodules of MIA-PaCa2 tumor,"MIA-PaCa2 [19]; highest dose (250 mg/kg/day) s.c., day 30, versus control",~90%
same,MMP-9 protein level,MMP-9 [20],modestly increased
CNC(=O)[C@@H](NC(=O)[C@H](CC(C)C)[C@H](O)C(=O)NO)C(C)(C)C [marimastat],clinical toxicity,"[7]; higher dosage, patients with breast cancer metastasis",high musculoskeletal toxicities
